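Compound exposure: 48 hours, 5 concentrations, 96-well plates. At the GI50, growth is halved. Definition used: TGI = concentration required for complete inhibition of growth.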
How the values were obtained:
Test in all cases: NCI anticancer screen, dose series, 48 h
A498 renal = system: A498 renal
DU-145 prostate = system: DU-145 prostate
EKVX NSCLC = system: EKVX NSCLC
HCT-116 colon = system: HCT-116 colon
NCI-H522 lung = system: NCI-H522 lung
OVCAR-4 ovarian = system: OVCAR-4 ovarian
PC-3 prostate = system: PC-3 prostate
RPMI-8226 leukemia = system: RPMI-8226 leukemia
SK-MEL-28 melanoma = system: SK-MEL-28 melanoma
SNB-75 CNS = system: SNB-75 CNS

| Compound | GI50 (A498 renal) [µM] | TGI (A498 renal) [µM] | GI50 (DU-145 prostate) [µM] | TGI (DU-145 prostate) [µM] | GI50 (EKVX NSCLC) [µM] | TGI (EKVX NSCLC) [µM] | GI50 (HCT-116 colon) [µM] | TGI (HCT-116 colon) [µM] | GI50 (NCI-H522 lung) [µM] | TGI (NCI-H522 lung) [µM] | GI50 (OVCAR-4 ovarian) [µM] | TGI (OVCAR-4 ovarian) [µM] | GI50 (PC-3 prostate) [µM] | TGI (PC-3 prostate) [µM] | GI50 (RPMI-8226 leukemia) [µM] | TGI (RPMI-8226 leukemia) [µM] | GI50 (SK-MEL-28 melanoma) [µM] | TGI (SK-MEL-28 melanoma) [µM] | GI50 (SNB-75 CNS) [µM] | TGI (SNB-75 CNS) [µM] |
| --- | --- | --- | --- | --- | --- | --- | --- | --- | --- | --- | --- | --- | --- | --- | --- | --- | --- | --- | --- | --- |
| O=C1OC(=O)C2C1C1(c3ccccc3)C(c3ccccc3)=C(c3ccccc3)C2(c2ccccc2)S1=O (centres undefined) | > 100 | > 100 | > 100 | > 100 | > 100 | > 100 | > 100 | > 100 | > 100 | > 100 | > 100 | > 100 | 87.7 | > 100 | 53.1 | > 100 | > 100 | > 100 | > 100 | > 100 |
| Cc1ccc2c(N)c(C(=O)N[C@H]3CCc4cc(N5CC6CCC(C5)N6)ccc4C3)sc2n1 | 0.775 | 2.65 | 0.165 | 1.48 | 0.572 | 2.34 | 0.251 | 3.44 | 0.265 | 1.59 | 0.301 | 1.96 | 0.676 |  | 0.764 | 3.42 | 0.586 | 2.81 | 0.355 | 2.83 |
| COC(=O)/C(=C\c1c(C)[nH]c2ccccc12)S(=O)(=O)c1ccccc1 | 5.45 | 20.9 | 2.94 | 8.01 | 5.04 | > 100 | 3.8 | 17.3 | 3.19 | 14.4 | 5.71 | > 100 | 5.54 | > 100 | 3.15 | > 100 | 5.78 | 18.7 | 3.08 | 14.6 |
| COc1nc(C)cc2c(=O)n(-c3ccccc3)n(CCCN3CCN(c4ccc(Cl)cc4)CC3)c(=O)c12 | > 50 | > 50 | > 50 | > 50 | > 50 | > 50 | 27.5 | > 50 | 28.6 | > 50 | 17.6 | > 50 | 15.3 | > 50 | > 50 | > 50 | > 50 | > 50 | 14.1 | 47.6 |
| O=C1c2ccccc2-c2c1c1ccccc1c(=O)n2CCCN1CCOCC1 | 21.7 | 71.4 | 10.1 | > 82.6 | 22.7 | 76.4 | 13.6 | 31.8 | 10.1 | > 63.3 | > 100 | > 100 | 26.2 | > 100 | > 44.4 | > 100 | > 100 | > 100 | 2.98 | > 27.7 |
| O=[N+]([O-])/C=C/c1c[nH]c2ccccc12 | 16.2 | 31.2 | 15.5 | 32.5 | 19.3 | 45.1 | 3.32 | 11.3 | 14.8 | 28.9 | 12.4 | 26.8 | 24.2 | 64.8 | 1.83 | 7.7 | 17.4 | 32.5 | 4.45 | 16.3 |
| Cc1cc2c(F)c(Oc3ncnn4cc(OC[C@@H](C)OC(=O)[C@H](C)N)c(C)c34)ccc2[nH]1 | 4.55 | 17.3 | 11.7 | 24.2 | 13.5 | 26.9 | 3.38 | 18.9 | 11.1 | 24.7 | 11.3 | 23.8 | 5.28 | 23.9 | 5.94 | 23.7 | 12.9 | 25.7 | 9.42 | 24.6 |
| C[N+](C)(CCCCCC[N+](C)(C)CCCN1C(=O)c2cc3ccccc3cc2C1=O)CCCN1C(=O)c2ccccc2C1=O | > 37.5 | > 37.5 | > 37.5 | > 37.5 | > 37.5 | > 37.5 | > 37.5 | > 37.5 | > 37.5 | > 37.5 | > 37.5 | > 37.5 | > 37.5 | > 37.5 | > 37.5 | > 37.5 | > 37.5 | > 37.5 | > 37.5 | > 37.5 |
| O=C(Oc1ccc(CCl)cc1)c1ccccc1 | 0.221 | 1.83 | 0.269 | 0.746 | 0.531 | 1.79 | 0.138 | 0.426 | 0.154 | 0.316 | 0.159 | 0.313 | 0.15 | 0.332 | 0.0615 | 0.288 | 0.159 | 0.315 | 0.172 | 0.356 |

Reference: PubChem BioAssay (NCI)
